{
  "source": "patent US11413321B2",
  "about": "“Pharmaceutical composition for use in increasing hair, modifying scalp or skin, healing a wound, promoting osteogenesis, or modifying hair” (priority 2017, dated 2022)",
  "assay_type_in_all_cases": "in vivo, Wistar rat",
  "key": {"Itga4": {"system": "Itga4", "experiment": "Quantitative PCR of dorsal tissues after subcutaneous administration (Itga4)", "conditions": "20 μL per location into rat dorsal part; vs control without administration; FIG. 15", "description": "(§1) 4.) Integrin subunit alpha 4 (Itga4), Rattus norvegicus: mRNA 3,736 bp NM 001107737.1 GI: 157819948 Next, a change in gene expression in tissues was examined. Three regions were set between the head and the tail of the dorsal part of a 12-week-old Wistar rat (male), and each region was divided between the left and the right of the backbone into two regions to set a total of six regions on the dorsal part. Milk or palmitic acid was injected in an amount of 20 μL per location at two locations in the vicinity of the center of each region. The distance between the two locations was 1 cm. The collected tissue fragments were frozen with liquid nitrogen, and stored at −80° C. […] Analysis of gene expression by quantitative PCR was performed in the following manner: Integrated DNA technologies, Inc (Skokie, Ill., USA) was requested to design and synthesize gene-specific primers and probes, and using PrimeTime Gene Expression Master Mix Reagent (Integrated DNA Technologies, Inc, Skokie, Ill., USA) and Rotor-Gene Q PCR Apparatus (QIAGEN GmbH, Hilden, Germany), PCR analysis was performed twice per gene per specimen to analyze the expression level of a target gene. […]"}, "CD34": {"system": "CD34", "experiment": "Quantitative PCR of dorsal tissues after subcutaneous administration (CD34)", "conditions": "20 μL per location into rat dorsal part; vs control without administration; FIG. 15", "description": "as §1, with “5.) CD34,” for “4.) Integrin subunit alpha 4 (Itga4),”, “norvegicus: CD34 molecule (Cd34),” for “norvegicus:”, “1,161” for “3,736”, “001107202.2” for “001107737.1”, “169790781” for “157819948”"}, "PPAR-γ-positive cells": {"system": "PPAR-γ-positive cells", "experiment": "Immunohistological staining of rat dorsal skin after injection of fatty acids (PPAR-γ)", "conditions": "1 mg fatty acid in 20 μL per location", "description": "Next, representative fatty acids contained in milk were administered to a 12-week-old Wistar rat at a plurality of locations on the dorsal skin as in Example 1(2) above, and a change in tissues by the administration was observed after the tissues were subjected to immunohistological staining. More specifically, physiological saline was administered in an amount of 20 μL per location, an administration liquid containing 1 mg of a fatty acid was administered in an amount of 20 μL per location, and a change in CD68-positive macrophage stained images and PPAR-γ-positive cell images by the administration was observed. Samples of the Wistar rat were obtained by sampling administration sites (four weeks after administration and eight weeks after administration). FIGS. 10A to 10G show the results. […] At saturated fatty acid injection sites, infiltration of a large number of CD68-positive cells was observed, and fibrillization of normal tissues was observed. Therefore, in FIGS. 10B to 10D, a change in fat tissues was examined at a location which was closest to the administration site and where normal tissues were maintained (non-fibrillization location)."}},
  "data": [
    {"smiles": "CCCCCCCCCCCCCCCC(=O)O", "note": "[palmitic acid]", "values": [
      {"measurement": "expression level of Itga4 in tissues", "setting": "Itga4", "value": "greatly increased"},
      {"measurement": "CD34 gene expression in tissues", "setting": "CD34", "value": "increase"},
      {"measurement": "increase in the number of PPAR-γ-positive cells at the administration site", "setting": "PPAR-γ-positive cells; eight weeks after administration", "value": "maintained"},
      {"measurement": "number of PPAR-γ-positive cells at the administration site", "setting": "PPAR-γ-positive cells; four weeks after administration, vs physiological saline, FIGS. 10B-10G", "value": "increased"}
    ]}
  ]
}
